Earlier results in patent publication US20200215149A1, “N-Phenylacetyl-L-prolylglycine ethyl ester compositions and methods for using the same” (priority 2019, published 2020).
Like-named read-outs stand apart in the source and are kept apart here. Where a SMILES comes first, the peptide text is derived from it. The star is where a group is joined. PhAc = O=C(Cc1ccccc1)*

Experiments:
[1] = Ostrovskaya, et al. (2008); Hayakawa, et al. (2007)
[2] = ratio versus piracetam; Neznamov and Teleshova (2009)

Which results are given for CCOC(=O)CNC(=O)[C@@H]1CCCN1C(=O)Cc1ccccc1 [noopept, N-Phenylacetyl-L-prolylglycine ethyl ester] (PhAc-Pro-Gly-OEt)?
tolerance or addiction [1]: neither noopept nor CBD has been shown to cause the user to become tolerant or addicted; effective dose, times smaller in mass than the effective dose of piracetam [2]: over 50 times; side effects (healthy human subjects, compared with piracetam, Neznamov and Teleshova (2009)): fewer side effects

For C=C(C)[C@@H]1CCC(C)=C[C@H]1c1c(O)cc(CCCCC)cc1O [CBD, cannabidiol], which tolerance or addiction [1] is on record?
Its tolerance or addiction is “neither noopept nor CBD has been shown to cause the user to become tolerant or addicted”.

And the side effects (humans who consume effective doses of CBD, Bergamaschi, et al. (2011))?
The side effects was “generally does not cause significant side effects”.
